Earlier results as cited in patent US20070025918A1, “Magnetic resonance imaging (MRI) agents: water soluble carbon-13 enriched fullerene and carbon nanotubes for use with dynamic nuclear polarization” (General Electric Company, priority 2005, published 2007).

Tests used:
[1] = THF and acetone

solubility in water: virtually insoluble
solubility in organic solvents [1]: soluble
Substance: C60F60
